These results are taken from ChEMBL document CHEMBL4842380, “Enhanced Properties of a Benzimidazole Benzylpyrazole Lysine Demethylase Inhibitor: Mechanism-of-Action, Binding Site Analysis, and Activity in Cellular Models of Prostate Cancer” (J Med Chem, 2021).

One data set concerns LNCaP. Put plainly: Cytotoxicity against human LnCaP cells assessed as growth inhibition after 48 hrs by alamar blue assay. The data set is classed as functional. (Resazurin is reduced to fluorescent resorufin, in cell work by metabolically active cells.)
Data set [1] has as its target T1, Lysine-specific demethylase 4E (Homo sapiens, UniProt B2RXH2).
T1 sequence (B2RXH2 whole entry): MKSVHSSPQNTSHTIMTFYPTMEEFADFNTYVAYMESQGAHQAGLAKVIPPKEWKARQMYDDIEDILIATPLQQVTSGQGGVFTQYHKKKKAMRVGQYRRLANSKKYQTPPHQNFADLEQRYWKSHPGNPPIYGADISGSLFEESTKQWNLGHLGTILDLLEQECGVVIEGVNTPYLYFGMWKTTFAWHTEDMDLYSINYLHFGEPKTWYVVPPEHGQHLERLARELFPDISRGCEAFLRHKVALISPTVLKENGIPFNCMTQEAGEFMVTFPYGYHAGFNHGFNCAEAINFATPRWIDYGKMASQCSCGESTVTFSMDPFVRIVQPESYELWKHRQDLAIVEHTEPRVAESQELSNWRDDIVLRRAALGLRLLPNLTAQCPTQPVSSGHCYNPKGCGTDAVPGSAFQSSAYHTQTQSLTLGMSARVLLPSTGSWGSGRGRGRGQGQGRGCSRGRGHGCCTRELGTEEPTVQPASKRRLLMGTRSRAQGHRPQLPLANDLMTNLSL
Put plainly: Inhibition of N-terminal His6-tagged KDM4E (1 to 337 residues) (unknown origin) expressed in Escherichia coli BL21 (DE3)-R3 preincubated for 10 mins followed by alpha-KG addition after CTH addition for 2 hrs by ELISA. In general terms: An ELISA detects its analyte on a solid surface through an enzyme-linked reagent.

The test system of data set [2] is PC-3. The experiment in a line: Cytotoxicity against human PC-3 cells assessed as growth inhibition after 48 hrs by alamar blue assay. The data set is classed as functional.
The nature of data set [3]: Cytotoxicity against human prostate epithelial cells assessed as growth inhibition after 48 hrs by alamar blue assay. The data set is classed as cell-based, Prostate cell.
Data set [4] relates to DU-145. Put plainly: Cytotoxicity against human DU-145 cells assessed as growth inhibition after 48 hrs by alamar blue assay. The data set is classed as functional.
Data set [5] has as its system PC-3. Put plainly: Cytotoxicity against human PC-3 cells assessed as remaining cell viability after 48 hrs by alamar blue assay. Format: functional.
For data set [6], the target named is T1, Lysine-specific demethylase 4E. Put plainly: Inhibition of N-terminal His6-tagged KDM4E (1 to 337 residues) (unknown origin) expressed in Escherichia coli BL21 (DE3)-R3 preincubated for 10 mins followed by substrate addition by fluorescence based FDH-coupled assay.
The test system of data set [7] is DU-145. Put plainly: Cytotoxicity against human DU-145 cells assessed as remaining cell viability after 48 hrs by alamar blue assay. The data set is classed as functional.
Data set [8] in a line: Cytotoxicity against human LnCaP cells assessed as remaining cell viability after 48 hrs by alamar blue assay. Format: functional, Prostate cell.
Data set [9] is described as follows: Cytotoxicity against human prostate epithelial cells assessed as remaining cell viability after 48 hrs by alamar blue assay. The data set is classed as functional.

As usually defined, the GI50 is the concentration that inhibits growth by half. As a reminder, the IC50 is the concentration that inhibits the measured activity by half. A higher IC50 goes with a need for much substance. For the molecule `COC(=O)Cc1cc(O)n(-c2nc3ccccc3[nH]2)n1`, the figures for the GI50 in the data set on LNCaP, in the data set with PC-3 [2] and in the data set on DU-145 [4] were 410 µM, over 1000 µM and over 1000 µM, respectively. In addition, the IC50 in data set [1] is 581 µM; in data set [6] it was 15 µM. Also, the GI50 at 48 h in data set [3] was over 500 µM. Besides, the Activity in the data set on PC-3 [5] was 79%; with DU-145 [7] it was 69%; in data set [8] it was 15%; in data set [9], 12%.
